Data from ChEMBL document CHEMBL5338783, “Discovery of an Anti-TNF-α 9-mer Peptide from a T7 Phage Display Library for the Treatment of Inflammatory Bowel Disease” (J Med Chem, 2023).
Activity calls are given as the source filed them. The calls are words filed in the database; no cut-off is given here. Peptide text beside a SMILES is read from it.

Each compound was assayed against T1, Tumor necrosis factor (Homo sapiens, UniProt P01375) (assay: Binding affinity to recombinant TNF-alpha (unknown origin) assessed as dissociation constant incubated for 10 mins by MST assay). Details: not given.
T1 sequence (P01375 whole entry): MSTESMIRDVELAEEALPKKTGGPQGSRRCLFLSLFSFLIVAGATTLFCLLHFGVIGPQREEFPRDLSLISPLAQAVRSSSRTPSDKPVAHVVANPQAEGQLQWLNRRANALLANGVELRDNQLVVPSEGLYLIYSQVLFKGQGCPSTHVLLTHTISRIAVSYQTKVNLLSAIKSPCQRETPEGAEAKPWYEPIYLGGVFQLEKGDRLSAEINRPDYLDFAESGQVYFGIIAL

Compound	Kd [µM]
C[C@H](N)C(=O)N[C@@H](CS)C(=O)N[C@@H](Cc1c[nH]cn1)C(=O)N[C@@H](C)C(=O)N[C@@H](C)C(=O)N[C@@H](C)C(=O)N1CCC[C@H]1C(=O)N[C@H](C(=O)N[C@@H](CCCNC(=N)N)C(=O)O)[C@@H](C)O (H-ACHAAAPTR-OH)	563
C[C@H](N)C(=O)N[C@@H](CS)C(=O)N[C@@H](Cc1c[nH]cn1)C(=O)N[C@@H](C)C(=O)N[C@@H](Cc1c[nH]c2ccccc12)C(=O)N[C@@H](C)C(=O)N[C@@H](C)C(=O)N[C@H](C(=O)N[C@@H](CCCNC(=N)N)C(=O)O)[C@@H](C)O (H-ACHAWAATR-OH)	9.06
C[C@H](N)C(=O)N[C@@H](CS)C(=O)N[C@@H](C)C(=O)N[C@@H](C)C(=O)N[C@@H](Cc1c[nH]c2ccccc12)C(=O)N[C@@H](C)C(=O)N1CCC[C@H]1C(=O)N[C@H](C(=O)N[C@@H](CCCNC(=N)N)C(=O)O)[C@@H](C)O (H-ACAAWAPTR-OH)	230
C[C@H](N)C(=O)N[C@@H](CS)C(=O)N[C@@H](Cc1c[nH]cn1)C(=O)N[C@@H](C)C(=O)N[C@@H](Cc1c[nH]c2ccccc12)C(=O)N[C@@H](C)C(=O)N1CCC[C@H]1C(=O)N[C@@H](C)C(=O)N[C@@H](CCCNC(=N)N)C(=O)O (H-ACHAWAPAR-OH)	18

The compounds below were run against T1, Tumor necrosis factor (assay: Binding affinity to recombinant TNF-alpha (unknown origin) at 488.3 to 500 uM incubated for 10 mins by MST assay). Details: dose 488.3-500 µM.

Compound	Activity
CC[C@H](C)[C@H](NC(=O)CNC(=O)[C@H](CC(C)C)NC(=O)[C@H](CC(C)C)NC(=O)[C@H](CO)NC(=O)[C@H](CC(C)C)NC(=O)[C@@H](NC(=O)[C@H](CCC(N)=O)NC(=O)[C@@H](N)CC(N)=O)[C@@H](C)CC)C(=O)O (H-NQILSLLGI-OH)	inactive
CC[C@H](C)[C@H](NC(=O)[C@H](CCCCN)NC(=O)[C@H](CCCCN)NC(=O)[C@H](C)N)C(=O)N[C@H](C(=O)N[C@@H](CC(C)C)C(=O)N[C@@H](CCCNC(=N)N)C(=O)N[C@@H](CC(C)C)C(=O)N[C@@H](CO)C(=O)O)[C@@H](C)CC (H-AKKIILRLS-OH)	inactive
